Measured values from patent US20070244140A1, “Anilino-pyrimidine phenyl and benzothiophene analogs” (Wyeth, priority 2006, published 2007).

| melting point [°C] | SMILES |
| --- | --- |
| 240 to 241 | O=S(=O)(c1ccc(Nc2nccc(-c3ccc(C(F)(F)F)cc3)n2)cc1)N1CCOCC1 [Exemplary Compound 39, N-[4-(Morpholin-4-ylsulfonyl)phenyl]-4-[4-(trifluoromethyl)phenyl]pyrimidin-2-amine] |
| 204 to 205 | O=S(=O)(NCCCO)c1ccc(Nc2nccc(-c3ccc(C(F)(F)F)cc3)n2)cc1 [Exemplary Compound 68, N-(3-hydroxypropyl)-4-({4-[4-(trifluoromethyl)phenyl]pyrimidin-2-yl}amino)-benzenesulfonamide] |
